Measured values taken from US20260062447A1, “COMPOUNDS” (UNIVERSITY OF SOUTHAMPTON, priority 2022, published 2026).
One block for each molecule: values may come before it. Where a SMILES comes first, the peptide text is derived from it. [ ]: non-standard residue; d: D form. Phe(4-CF3) = N[C@@H](Cc1ccc(C(F)(F)F)cc1)C(=O)O; Phe(4-Br) = N[C@@H](Cc1ccc(Br)cc1)C(=O)O; Nle = CCCC[C@H](N)C(=O)O

Experiments:
HeLa cells = experiment: Cell internalization of the fluorescent peptide, PMT detection at 405 nm; format: cell-based
From the text: (§1) FIG. 11—A) Structure of cyclic peptide that incorporates a coumaryl motif at the phenylalanine position CLL-Cou-VY [SEQ ID NO: 39 Cys leu leu cou val tyr]. B) MST analysis of CLL-Cou-VY. C) The peptide was seen to be internalized in HeLa cells upon visualization with PMT detection at 405 nm. […] E) HIF-1α immunofluorescence under control conditions showing that without treatment HIF-1a localizes to the nucleus.
We therefore made a peptide with a coumaryl motif incorporated at the phenylalanine position the compound, CLL-Cou-VY, shown in FIG. 11 was seen to be internalized in HeLa cells upon visualization with PMT detection at 405 nm.

[1] = test system: HIF-1α nuclear localization; experiment: HIF-1α immunofluorescence (nuclear localization); format: cell-based
From the text: as §1

[2] = biological target: T1, HIF-1α PAS-B domain mutant C337A (Homo sapiens, UniProt Q16665, C337A); experiment: MST binding to cysteine mutant HIF-1α PAS-B C337A; details: site-directed mutagenesis
T1 construct: made in house
T1 sequence (Q16665 238-349 C337A limits assumed): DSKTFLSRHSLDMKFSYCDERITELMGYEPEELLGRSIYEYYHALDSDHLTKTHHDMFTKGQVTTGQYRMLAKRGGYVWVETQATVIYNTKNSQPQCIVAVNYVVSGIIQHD
Procedure: (§2) One rationalization would be that the peptide binding is disulphide-mediated. Whilst this was thought to be unlikely as all assays were performed in the presence of the reducing agent TCEP, it was decided that the possibility would be further investigated via site-directed mutagenesis (SDM). The three cysteine residues within the HIF-1α PAS-B domain were sequentially mutated to alanine. The affinity of cyclo-CLLFVY for the resultant mutant proteins C255A, C344A and C337A was then assessed by MST.
(§3) An aliquot of labelled HIF-1α PAS-B was thawed on ice and diluted to 50 nM with HIF MST assay buffer, before being centrifuged at 12,000 rpm for 15 minutes. The compound was then serially diluted in DMSO to give 10× stocks. These were then diluted 1:5 in HIF MST assay buffer to give 2× stocks, before finally being mixed 1:1 (v/v) with the labelled protein to give a final concertation of 25 nM protein and a final DMSO content of 10%. Samples were loaded into NanoTemper® Monolith NT.115 premium treated capillaries and measurements were carried out using a Monolith NT.115 system at 25° C. using 50% MST power and 50% LED power. Data was analysed by NanoTemper® analysis software. Binding curves were fitted using GraphPad Prism 8 software.

[3] = biological target: T2, HIF-1α PAS-B domain mutant C255A (Homo sapiens, UniProt Q16665, C255A); experiment: MST binding to cysteine mutant HIF-1α PAS-B C255A; details: site-directed mutagenesis
T2 construct: made in house
T2 sequence (Q16665 238-349 C255A limits assumed): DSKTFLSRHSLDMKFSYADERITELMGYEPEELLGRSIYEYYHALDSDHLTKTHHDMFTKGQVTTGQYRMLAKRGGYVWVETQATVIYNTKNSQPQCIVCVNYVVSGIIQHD
Procedure: as §2, §3

[4] = biological target: HIF-1 three-domain protein binding to FAM-HRE; experiment: Fluorescence polarization assay of HIF-1 binding to FAM-HRE; format: biochemical; details: for IC50: FP assay, read-out: IC50 of inhibition of HIF DNA (FAM-HRE) binding
Procedure: (§4) HIF-1 three-domain protein was thawed on ice and diluted to 150 nM in HIF FP buffer. Compounds for analysis were serially diluted in DMSO to give 10× stocks. The compounds (10 μL, 100% DMSO) were then added to the protein (80 μL). The samples were then incubated at room temperature for 30 minutes. FAM-HRE (10 μL, 20 nM) was then added and the samples loaded into a 384 well solid black non-binding microplate (Corning, USA). The fluorescence polarization of each well was then measured using gain and focus settings optimized by the used software set to a signal of 400 mP on a control well.
An FP assay utilizing a FAM labelled HRE was used and CK-NL-F(CF3)IF(Br) assessed.
as §4, with “compounds (10 μl, 100% DMSO)” for “compounds (10 μL, 100% DMSO)”

[5] = test system: HIF-1α PAS-B domain mutant C344A; experiment: MST binding to cysteine mutant HIF-1α PAS-B C344A; details: site-directed mutagenesis
Procedure: as §2, §3

HIF-1α PAS-B domain = HIF-1α PAS-B domain (Homo sapiens, UniProt Q16665); experiment: Microscale thermophoresis (MST) binding to HIF-1α PAS-B domain; details: for binding affinity by MST, in words: compared within the derivative series or to the unsubstituted peptide
Sequence of HIF-1α PAS-B domain (Q16665 238-349 limits assumed): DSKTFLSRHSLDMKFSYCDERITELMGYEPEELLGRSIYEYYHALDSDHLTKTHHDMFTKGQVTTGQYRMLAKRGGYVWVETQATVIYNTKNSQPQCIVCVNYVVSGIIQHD
Procedure: The impact of these substitutions on the binding affinity was then assessed by MST.
An aliquot of labelled HIF-1α PAS-B was thawed on ice and diluted to 50 nM with HIF MST assay buffer, before being centrifuged at 12,000 rpm for 15 minutes. […] Samples were loaded into NanoTemper® Monolith NT.115 premium treated capillaries and measurements were carried out using a Monolith NT.115 system at 25° C. using 50% MST power and 50% LED power. Data was analysed by NanoTemper® analysis software. Binding curves were fitted using GraphPad Prism 8 software.

[6] = test system: HIF-1a driven transcription in U2OS HRE readout cell line; experiment: U2OS HRE readout assay (EYFP expression); format: cell-based
[7] = test system: HIF-1a driven transcription in Panc HRE readout cell line; experiment: Panc HRE readout cell line (EYFP expression); format: cell-based
[8] = biological target: T3, His-HIF-1α PAS-B domain with FLAG-HIF-1β PAS-B domain (Homo sapiens, UniProt Q16665); experiment: ELISA of HIF-1α PAS-B / HIF-1β PAS-B heterodimerization; format: biochemical; details: read-out: IC50 of disruption of HIF-1α-HIF-1β PAS-B-PAS-B dimer formation
T3 construct: heterodimerization of His-HIF-1α PAS-B domain with FLAG-HIF-1β PAS-B domain analysed by ELISA
T3 sequence (Q16665 238-349 limits assumed): as above
Procedure: FIG. 9‥Effects of (CONC) CK-n-leu-F(CF3)IF(Br) [SEQ ID NO: 40 Cys lys NL phe(CF3) ile phe(Br)] on the heterodimerization of His-HIF-1α PAS-B domain with FLAG-HIF-1β PAS-B domain analysed by ELISA.
The ability of CK-n-leu-F(CF3)IF(Br) to disrupt the HIF-1α-HIF-1β PAS-B-PAS-B PPI was then assessed via an ELISA assay.
To each well of a clear Pierce nickel coated 96-well plate (Thermo Scientific), purified Hiss-HIF-1α PAS-B protein in HIP buffer was added (25 μL, 0.1 μM), the plate was then incubated for 1 hr at RT with rocking. The wells were then washed 2× with HIF buffer (150 μL) and 1× with PBS Tween (0.05% Tween 20, 150 μL). 2% milk in PBS Tween (150 μL) was then added to each well and incubated for 1 hr at RT with rocking as a blocking step. The wells were then washed 2×PBS Tween (150 μL) and 1× with HIF buffer (150 μL). For HIF-B dimerisation a serial dilution of HIF-1β PAS-B ranging from 250 μM to 11 nM in HIF buffer (100 μL) was then added. […] The plate was then incubated at RT for 1 hr with rocking. The wells were then washed 2× with HIF buffer (150 μL) and 1× with PBS Tween (150 μL), A 1:1000 dilution of mouse anti-flag antibody in 2% milk PBS Tween (50 μL) was then added to each well and the plate incubated for a further hour at RT with rocking. […] H2SO4(aq) (2 M, 100 μL) was then added to each well and the absorbance at 450 nm determined on a BMG Clariostar plate reader.

[9] = Cytotox-Glo toxicity assay; format: cell-based; details: doses 50 uM

SMILES: CC(C)C[C@@H]1NC(=O)[C@H](CS)NC(=O)[C@H](Cc2ccc(O)cc2)NC(=O)[C@H](C(C)C)NC(=O)[C@H](CCc2cc(=O)oc3cc(O)ccc23)NC(=O)[C@H](CC(C)C)NC1=O [CLL-Cou-VY, Cys Leu Leu Cou Val Tyr]
internalization in cells (HeLa cells): internalized
effect on HIF-1α nuclear localization [1]: preventing HIF-1α nuclear localization

IC50 [4]: 76.5 ± 8 µM
SMILES: CC(C)C[C@@H]1NC(=O)[C@H](CS)NC(=O)[C@H](Cc2ccc(O)cc2)NC(=O)[C@H](C(C)C)NC(=O)[C@H](Cc2ccccc2)NC(=O)[C@H](CC(C)C)NC1=O [CLLFVY, Cys leu leu phe val tyr]
binding activity for mutant protein C337A [2]: binding activity is retained
binding activity for mutant protein C255A [3]: binding activity is retained
binding activity for mutant protein C344A [5]: binding activity is retained

IC50 [4]: 11.8 ± 1.1 µM
binding affinity by MST, in words (HIF-1α PAS-B domain): best affinity
SMILES: CC(C)C[C@@H]1NC(=O)[C@H](CS)NC(=O)[C@H](Cc2ccc(Br)cc2)NC(=O)[C@H](C(C)C)NC(=O)[C@H](Cc2ccc(C(F)(F)F)cc2)NC(=O)[C@H](CC(C)C)NC1=O [CLLF(CF3)IF(Br), Cys leu leu phe(CF3) ile phe(4-Br)]

binding affinity by MST, in words (HIF-1α PAS-B domain): comparable affinities
SMILES: NC(CCS)C(=O)O (centres unmarked) [homocysteine, h-cys leu leu phe val tyr]

binding affinity by MST, in words (HIF-1α PAS-B domain): comparable affinities
SMILES: CC(C)C[C@@H]1NC(=O)[C@H](CC(C)C)NC(=O)[C@@H](CS)NC(=O)[C@H](Cc2ccc(O)cc2)NC(=O)[C@H](C(C)C)NC(=O)[C@H](Cc2ccccc2)NC1=O [D-cysteine, d-cys leu leu phe val tyr]

SMILES: CCCC[C@@H]1NC(=O)[C@H](CC(C)C)NC(=O)[C@H](CS)NC(=O)[C@H](Cc2ccc(Br)cc2)NC(=O)[C@H]([C@@H](C)CC)NC(=O)[C@H](Cc2ccc(O)cc2)NC1=O [CL-n-leu-F(CF3)IF(Br), Cys leu n-leu phe(CF3) ile phe(4-Br)] (cyclo(CL[Nle]YI[Phe(4-Br)]))
expression of EYFP [6]: inhibited the expression of EYFP

fold improvement in affinity compared to the parent peptide CLLFVY (HIF-1α PAS-B domain; MST Kd relative to CLLFVY): 6 fold
SMILES: CC(C)C[C@@H]1NC(=O)[C@H](CS)NC(=O)[C@H](Cc2ccc(O)cc2)NC(=O)[C@H](C(C)C)NC(=O)[C@H](Cc2ccc3ccccc3c2)NC(=O)[C@H](CC(C)C)NC1=O [Nal, Cys leu leu Nal val tyr]

IC50 [8]: 27.7 ± 14 µM
compatibility with FP assay / direct binding to FAM-HRE ([4]; peptide itself with FAM labelled HRE): bind to the FAM-HRE directly
Kd (HIF-1α PAS-B domain; MST, HIF-1α PAS-B domain): 1.66 ± 0.3 µM
SMILES: CCCC[C@@H]1NC(=O)[C@H](CCCCN)NC(=O)[C@H](CS)NC(=O)[C@H](Cc2ccc(Br)cc2)NC(=O)[C@H]([C@@H](C)CC)NC(=O)[C@H](Cc2ccc(C(F)(F)F)cc2)NC1=O [CK-n-leu-F(CF3)IF(Br), Cys lys n-leu phe(CF3) ile phe(4-Br)] (cyclo(CK[Nle][Phe(4-CF3)]I[Phe(4-Br)]))
expression of EYFP [7]: inhibited the expression of EYFP
toxicity [9]: not toxic
